# Source: US9765063B2, “Amido compounds as RORγt modulators and uses thereof” (New York University, priority 2011, dated 2017)
# Read-outs that look alike come from different tables or passages of the source.
# Columns and labels:
# [1] = molecular target: T1, RORγt (Mus musculus, UniProt P51450); assay: RORγt S2 cell reporter assay (Gal4-RORγt fusion, UAS-luciferase); assay type: cell-based
# T1 construct: expressed in transfected cells; the other entry of the earlier key: GAL4 (P04386, Regulatory protein GAL4)
# T1 sequence (P51450 with tags, fused parts or gaps): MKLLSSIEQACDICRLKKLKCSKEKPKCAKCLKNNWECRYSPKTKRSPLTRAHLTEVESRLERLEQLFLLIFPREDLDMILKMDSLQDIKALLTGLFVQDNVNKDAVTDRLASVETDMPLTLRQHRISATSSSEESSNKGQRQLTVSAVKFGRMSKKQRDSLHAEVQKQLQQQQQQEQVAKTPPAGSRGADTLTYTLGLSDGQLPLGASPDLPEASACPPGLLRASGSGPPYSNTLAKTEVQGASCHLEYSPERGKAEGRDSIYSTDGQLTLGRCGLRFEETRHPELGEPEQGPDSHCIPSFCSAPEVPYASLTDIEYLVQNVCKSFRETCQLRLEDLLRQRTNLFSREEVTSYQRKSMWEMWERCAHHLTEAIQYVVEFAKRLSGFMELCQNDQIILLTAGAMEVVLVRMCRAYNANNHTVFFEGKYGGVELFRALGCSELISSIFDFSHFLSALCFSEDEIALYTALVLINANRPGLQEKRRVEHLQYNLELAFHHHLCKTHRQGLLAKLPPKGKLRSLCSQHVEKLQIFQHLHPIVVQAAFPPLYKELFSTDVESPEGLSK
# Description: Methods: The Drosophila S2 cell line was originally purchased from Invitrogen and was maintained in Schneider's medium supplemented with 10% heat-inactivated bovine fetal calf serum and antibiotics (Invitrogen). […] The resulting chimeric gene was subcloned into the copper inducible pMT/V5-His A vector (available from Invitrogen).
# Renilla luciferase construct under the polIII promoter was obtained from Dr. Dasgupta's laboratory (NYU medical center). In order to generate stable cell lines, cells were co-transfected with pMT-G4DBD-RORγt, pMT-G4DBD-RORα, pMT-G4DBD-DHR3, or pMT-G4DBDVP16 and pHygro plasmids (Invitrogen) and screened for resistant colonies in the presence of hygromycin (0.3 mg/mL). […] Using similar methods, stable clones with genomic integration of the luciferase reporters and other reporters were generated such as pMT-RORα_luc, pMT-DHR3_luc, or pMT-VP16_luc.
# Methods: 600 G4DBD-RORγ/γt-luc reporter (#25) or G4DBD-VP16-luc reporter cells were distributed into each well of 1,536-well white bottom plates in 4 μl S2 cell culture volume containing hygromicin (300 μg/ml) and puromycin (2 μg/ml). […] After one-hour incubation, 1 of culture medium solution containing copper sulfate (to final 0.7 mM) and 10 μM RORγ/γt antagonists were added to each well. After 20-hour incubation at ambient temperature, 1.5 μl firefly luciferase detection mix was added and the luciferase activities were measured in 10 min. ViewLux luminometers were used for measuring luciferase signal.
# A cell-based reporter assay was used to detect RORγt-mediated activity. This assay, called RORγt employed Drosophila Schneider cells that were stably transfected with two vectors: a gene expressing a fusion of the Gal4 DNA binding domain and RORγt transactivation domain under the control of the metallothionine promoter and a Photinus luciferase reporter regulated by the Gal4 binding site enhancer, UAS. […] Cells (600/well) were dispensed into white solid 1536-well plates (Greiner) using a solenoid-based dispenser. Following transfer of […] compound or DMSO vehicle by a pin tool, the plates were incubated 1 hr at ambient temperature, and 1 uL/well copper sulfate (700 uM final concentration) was added. The plates were centrifuged 15 s at 1000 RPM and incubated 20 hr at ambient temperature. After addition of 1.5 uL Photinus luciferase detection reagent, the plates were incubated 10 min at ambient temperature and then read by a ViewLux (Perkin Elmer) to detect luminescence. […] Efficacy is expressed as % of the maximal response of control inhibitor (Digoxin), set at 100%.
# [2] = tested on: RORα; assay: RORα overexpression dependent IL17a production in human CD4 T cells (FIG. 3); assay type: cell-based; conditions: FIG. 3, FACS, 0.5 μM; listed as NCGC00242624
# Protocol: Briefly, CD3+ CD4+ CD45RA+ naive human T cells were isolated from peripheral blood derived from healthy donors. The naive T cells were cultured in XVIVO-20 (Lonza) medium for 7 days in the presence of IL2 and stimulatory CD3 and CD28 antibodies. Cells were infected with lentivirus encoding human RORα or RORγ and compound or DMSO was added on day 2. FACS plot analysis is shown after gating on GFP expressing (virus infected) cells.
smiles,measurement,setting,value
"COc1cc(O)c(C(CC(=O)N2CC(C)CC(C)C2)c2ccc(C(=O)O)cc2)c(OC)c1 (stereo not drawn) [Compound 99, 4-(3-(3,5-Dimethylpiperidin-1-yl)-1-(2-hydroxy-4,6-dimethoxyphenyl)-3-oxopropyl)benzoic acid]",IC50,"[1]; Table 1, Drosophila S2 cells, luciferase reporter, read-out: IC50",1000 to 10000 nM
same,IC50,"[1]; Table 2, from the S2 cell reporter assay, listed for comparison, read-out: S2 cell RORg IC50",< 1000 nM
same,RORα overexpression dependent IL17a production in human CD4 T cells,[2],unaffected
